Key:
[1] = system: ECHOR; assay: In-water applied herbicidal mixtures, greenhouse, transplanted paddy rice weeds; type: in vivo, Echinochloa oryzoides (Ard.) Fritsch
Protocol: (§1) Weed seeds or nutlets of the desired test plant species were planted in puddled soil (mud) prepared by mixing a shredded, non-sterilized mineral soil (50.5 percent silt, 25.5 percent clay, and 24 percent sand, with a pH of about 7.6 and an organic matter content of about 2.9 percent) and water at a 1:1 volumetric ratio. The prepared mud was dispensed in 365 mL aliquots into 16-ounce (oz.) non-perforated plastic pots with a surface area of 86.59 square centimeters (cm^2) leaving a headspace of 3 centimeters (cm) in each pot Mud was allowed to dry overnight prior to planting or transplanting. Rice seeds were planted in Sun Gro MetroMix® 306 planting mixture, which typically has a pH of 6.0 to 6.8 and an organic matter content of about 30 percent, in plastic plug trays. Seedlings at the second or third leaf stage of growth were transplanted into 840 mL of mud contained in 32-oz. non-perforated plastic pots with a surface area of 86.59 cm^2 4 days prior to herbicide application. The paddy was created by filling the headspace of the pots with 2.5 to 3 cm of water. When required to ensure good germination and healthy plants, a fungicide treatment and/or other chemical or physical treatment was applied. The plants were grown for 4-22 days in a greenhouse with an approximate 14 hr photoperiod which was maintained at about 29′C during the day and 26° C. during the night. Nutrients were added as Osmocote® (19:6:12, N:P:K^+ minor nutrients) at 2 g per 16-oz. pot and 4 g per 32-oz. pot. Water was added on a regular basis to maintain the paddy flood, and supplemental lighting was provided with overhead metal halide 1000-Watt lamps as necessary. The plants were employed for testing when they reached the first through fourth true leaf stage.
(§2) Treatments consisted of the acid or esters of 4-amino-3-chloro-5-fluoro-6-(4-chloro-2-fluoro-3-methoxy-phenyl)pyridine-2-carboxylic acid (compound A) each formulated as an SC (suspension concentrate) and various herbicidal components alone and in combination. Forms of compound A were applied on an acid equivalent basis.
(§3) Other herbicidal components were applied on an active ingredient basis and included acetolactate synthase (ALS)-inhibiting herbicides formulated as Permit® 75 WDG, pyrazosulfuron-ethyl formulated as Agreen® WG or Sirius® G, and VLCFA inhibiting herbicide esprocarb (technical grade material).
(§4) Treatment requirements for each compound or herbicidal component were calculated based upon the rates being tested, the concentration of active ingredient or acid equivalent in the formulation, an application volume of 2 mL per component per pot, and an application area of 86.59 cm^2 per pot.
(§5) For formulated compounds, a measured amount was placed in an individual 100 or 200 mL glass vial and was dissolved in a volume of 1.25% (v/v) Agri-Dex® crop oil concentrate to obtain application solutions.
(§6) For technical grade compounds, a weighed amount was placed in an individual 100 to 200 mL glass vial and was dissolved in a volume of acetone to obtain concentrated stock solutions. […] The concentrated stock solutions obtained were diluted with an equivalent volume of an aqueous mixture containing 2.5% (v/v) crop oil concentrate so that the final application solutions contained 1.25% (v/v) crop oil concentrate.
(§7) Applications were made by injecting with a pipetter appropriate amounts of the application solutions, individually and sequentially, into the aqueous layer of the paddy. Control plants were treated in the same manner with the solvent blank. Applications were made so that all treated plant material received the same concentrations of acetone and crop oil concentrate.
(§8) The treated plants and control plants were placed in a greenhouse as described above and water was added as needed to maintain a paddy flood. […]

[2] = system: CYPRO; assay: as above; type: in vivo, Cyperus rotundus L.
Protocol: as §1, §2, §3, §4, §5, §6, §7, §8

[3] = system: SCPMA; assay: as above; type: in vivo
Protocol: as §1, §2, §3, §4, §5, §6, §7, §8

[4] = system: ECHCG; assay: as above; type: in vivo, Echinochloa crus-galli (L.) Beauv.
Protocol: as §1, with “Water was added on a regular basis to maintain the paddy flood, and supplemental lighting was provided with overhead metal halide 1000-Watt lamps as necessary. The plants were employed for testing when they reached the first through fourth true leaf stage.” left out
as §4
(§9) For formulated compounds, a measured amount was placed in an individual 100 or 200 mL glass vial and was dissolved in a volume of 1.25% (v/v) Agri-Dex® crop oil concentrate to obtain application solutions. […]

[5] = system: BRAPP; assay: Post-emergence foliar-applied herbicidal mixtures, greenhouse, direct seeded rice weeds; type: in vivo; conditions: 4.38 g ae/ha
Source text: (§10) Seeds or nutlets of the desired test plant species were planted in a soil matrix prepared by mixing a loam or sandy loam soil (e.g., 28.6 percent silt, 18.8 percent clay, and 52.6 percent sand, with a pH of about 5.8 and an organic matter content of about 1.8 percent) and calcareous grit in an 80 to 20 ratio. The soil matrix was contained in plastic pots with a volume of 1 quart and a surface area of 83.6 square centimeters (cm^2). When required to ensure good germination and healthy plants, a fungicide treatment and/or other chemical or physical treatment was applied. The plants were grown for 8-22 days in a greenhouse with an approximate 14 hr photoperiod which was maintained at about 29° C. during the day and 26° C. during the night. Nutrients (Peters Excel® 15-5-15 5-Ca 2-Mg and iron chelate) were applied in the irrigation solution as needed and water was added on a regular basis. Supplemental lighting was provided with overhead metal halide 1000-Watt lamps as necessary. The plants were employed for testing when they reached the first through fourth true leaf stage.
as §2, with “(Compound A),” for “(compound A)”, “concentrate),” for “concentrate)”
(§11) Other herbicidal components were applied on an active ingredient basis and included the acetolactate synthase (ALS)-inhibiting herbicides halosulfuron-methyl formulated as Permit® 75 WDG, pyrazosulfuron-ethyl formulated as Agreen® WG or Sirius® G, and the VLCFA inhibiting herbicide esprocarb (technical grade material).
(§12) Treatment requirements were calculated based upon the rates being tested, the concentration of active ingredient or acid equivalent in the formulation, and a 12 mL application volume at a rate of 187 L/ha.
(§13) For treatments comprised of formulated compounds, measured amounts of compounds were placed individually in 25 mL glass vials and diluted in a volume of 1.25% (v/v) Agri-Dex® crop oil concentrated to obtain 12× stock solutions. […] Application solutions were prepared by adding an appropriate amount of each stock solution (e.g., 1 mL) and diluted to the appropriate final concentrations with the addition of 10 mL of an aqueous mixture of 1.25% (v/v) crop oil concentrate so that the final spray solutions contained 1.25+/−0.05% (v/v) crop oil concentrate.
(§14) For treatments comprised of technical compounds, weighed amounts can be placed individually in 25 mL glass vials and dissolved in a volume of 97:3 v/v acetone/DMSO to obtain 12× stock solutions. […] Application solutions can be prepared by adding an appropriate amount of each stock solution (e.g., 1 mL) and diluted to the appropriate final concentrations with the addition of 10 mL of an aqueous mixture of 1.5% (v/v) crop oil concentrate so that the final spray solutions contain 1.25% (v/v) crop oil concentrate. When technical materials are used, the concentrated stock solutions can be added to the spray solutions so that the final acetone and DMSO concentrations of the application solutions are 16.2% and 0.5%, respectively.
(§15) For treatments comprised of formulated and technical compounds, weighed amounts of the technical materials were placed individually in 25 mL glass vials and dissolved in a volume of 97:3 v/v acetone/DMSO to obtain 12× stock solutions, and measured amounts of the formulated compounds were placed individually in 25 mL glass vials and diluted in a volume of 1.5% (v/v) crop oil concentrate or water to obtain 12× stock solutions. […] Application solutions were prepared by adding an appropriate amount of each stock solution (e.g., 1 mL) and diluted to the appropriate final concentrations with the addition of an appropriate amount of an aqueous mixture of 1.5% (v/v) crop oil concentrate so that the final spray solutions contained 1.25% (v/v) crop oil concentrate. […]

[6] = system: SCPJU; assay: In-water applied herbicidal mixtures, greenhouse, transplanted paddy rice weeds; type: in vivo, Schoenoplectus juncoides (Roxb.) Palla
Protocol: as §1
as §2, with “basis. […]” for “basis.”
as §4, §9

[7] = system: DIGSA; assay: Post-emergence foliar-applied herbicidal mixtures, greenhouse, direct seeded rice weeds; type: in vivo, Digitaria sanguinalis (L.) Scop.
Source text: as §10
as §2, with “(Compound A),” for “(compound A)”, “concentrate),” for “concentrate)”
as §11, §12, §13, §14, §15

[8] = system: FIMMI; assay: In-water applied herbicidal mixtures, greenhouse, transplanted paddy rice weeds; type: in vivo, Fimbristylis miliacea (L.) Vahl
Protocol: as §1, §2, §3, §4, §5, §6
Applications were made by injecting with a pipetter appropriate amounts of the application solutions, individually and sequentially, into the aqueous layer of the paddy. […]

[9] = system: ECHCO; assay: Post-emergence foliar-applied herbicidal mixtures, greenhouse, direct seeded rice weeds; type: in vivo, Echinochloa colona (L.) Link
Source text: as §10, with “stage. […]” for “stage.”
as §12
For treatments comprised of formulated compounds, measured amounts of compounds were placed individually in 25 mL glass vials and diluted in a volume of 1.25% (v/v) Agri-Dex® crop oil concentrated to obtain 12× stock solutions. […]
For treatments comprised of formulated and technical compounds, weighed amounts of the technical materials were placed individually in 25 mL glass vials and dissolved in a volume of 97:3 v/v acetone/DMSO to obtain 12× stock solutions, and measured amounts of the formulated compounds were placed individually in 25 mL glass vials and diluted in a volume of 1.5% (v/v) crop oil concentrate or water to obtain 12× stock solutions. […]

[10] = system: LEFCH; assay: as above; type: in vivo, Leptochloa chinensis (L.) Nees; conditions: 35 g ae/ha
Source text: as §10
as §2, with “(Compound A),” for “(compound A)”, “concentrate),” for “concentrate)”
as §11, §12, §13, §14, §15

With `COc1c(Cl)ccc(-c2nc(C(=O)O)c(Cl)c(N)c2F)c1F` [Compound A Acid, 4-amino-3-chloro-5-fluoro-6-(4-chloro-2-fluoro-3-methoxy-phenyl)pyridine-2-carboxylic acid] the “Visual Weed Control (%) - 22 DAA ECHOR Obs” value ([1]; 8.75 g ae/ha) was 0%, the “Visual Weed Control (%) - 22 DAA ECHOR Obs” value ([1]; 17.5 g ae/ha) was 0% and the “Visual Weed Control (%) - 22 DAA ECHOR Obs” value ([1]; 35 g ae/ha) was 20%. For the same compound, the “Visual Weed Control (%) - 20 DAA ECHOR Obs” value ([1]; 42.4 g ae/ha) was 18%, the “Visual Weed Control (%) - 20 DAA ECHOR Obs” value ([1]; 84.8 g ae/ha) was 33% and the “Visual Weed Control (%) - 21 DAA CYPRO Obs” value ([2]; 8.75 g ae/ha) was 30%. The “Visual Weed Control (%) - 21 DAA CYPRO Obs” value ([2]; 17.5 g ae/ha) was 50%, the “Visual Weed Control (%) - 21 DAA CYPRO Obs” value ([2]; 35 g ae/ha) was 65% and the “Visual Weed Control (%) - 22 DAA SCPMA Obs” value ([3]; 8.75 g ae/ha) was 0%. For the same compound, the “Visual Weed Control (%) - 22 DAA SCPMA Obs” value ([3]; 17.5 g ae/ha) was 0%, the “Visual Weed Control (%) - 22 DAA SCPMA Obs” value ([3]; 35 g ae/ha) was 0% and the “Visual Weed Control (%) - 20 DAA SCPMA Obs” value ([3]; 42.4 g ae/ha) was 0%. For the same compound, the “Visual Weed Control (%) - 20 DAA SCPMA Obs” value ([3]; 84.8 g ae/ha) was 0%, the “Visual Weed Control (%) - 21 DAA ECHCG Obs” value ([4]; 8.75 g ae/ha) was 0% and the “Visual Weed Control (%) - 21 DAA ECHCG Obs” value ([4]; 17.5 g ae/ha) was 30%. For the same compound, the “Visual Weed Control (%) - 20 DAA BRAPP Obs” value [5] was 50%, the “Visual Weed Control (%) - 22 DAA BRAPP Obs” value [5] was 45% and the “Visual Weed Control (%) - 21 DAA SCPJU Obs” value ([6]; 8.75 g ae/ha) was 40%. For the same compound, the “Visual Weed Control (%) - 21 DAA SCPJU Obs” value ([6]; 17.5 g ae/ha) was 60%, the “Visual Weed Control (%) - 20 DAA DIGSA Obs” value ([7]; 21.2 g ae/ha) was 10% and the “Visual Weed Control (%) - 20 DAA DIGSA Obs” value ([7]; 42.4 g ae/ha) was 25%. For the same compound, the “Visual Weed Control (%) - 21 DAA FIMMI Obs” value ([8]; 8.75 g ae/ha) was 0%, the “Visual Weed Control (%) - 21 DAA FIMMI Obs” value ([8]; 17.5 g ae/ha) was 95% and the “Visual Weed Control (%) - 22 DAA ECHCO Obs” value ([9]; 4.38 g ae/ha) was 65%. The “Visual Weed Control (%) - 22 DAA ECHCO Obs” value ([9]; 8.75 g ae/ha) was 80%.

`CCCCOC(=O)c1nc(-c2ccc(Cl)c(OC)c2F)c(F)c(N)c1Cl` [Compound A n-Butyl Ester] was tested, and the “Visual Weed Control (%) - 20 DAA ECHOR Obs” value ([1]; 35 g ae/ha) was 35%, the “Visual Weed Control (%) - 20 DAA ECHOR Obs” value ([1]; 70 g ae/ha) was 40% and the “Visual Weed Control (%) - 20 DAA SCPMA Obs” value ([3]; 35 g ae/ha) was 0%. The “Visual Weed Control (%) - 20 DAA SCPMA Obs” value ([3]; 70 g ae/ha) was 0%, the “Visual Weed Control (%) - 20 DAA LEFCH Obs” value [10] was 48% and the “Visual Weed Control (%) - 20 DAA DIGSA Obs” value ([7]; 17.5 g ae/ha) was 13%.

From US8809232B2, “Herbicidal compositions comprising 4-amino-3-chloro-5-fluoro-6-(4-chloro-2-fluoro-3-methoxyphenyl) pyridine-2-carboxylic acid or a derivative thereof and halosulfuron, pyrazosulfuron and esprocarb” (Dow Agrosciences LLC, priority 2012, dated 2014)
